{"source": "patent US10934255B2", "about": "“Nrf and HIF activators/HDAC inhibitors and therapeutic methods using the same” (THE BOARD OF TRUSTEES OF THE UNIVERSITY OF ILLINOIS, priority 2017, dated 2021)", "key": {"C57BL/6 mice": {"tested_on": "C57BL/6 mice", "experiment": "Behavioral screening in the SmartCube (SC) platform", "format": "in vivo", "details": "50 mg/kg ip", "method": "FIG. 4 contains the SC signature of II-ING-6 (50 mg/kg, ip) showing anxiolytic activity.\nAnother evidence that II-ING-6 is can cross the BBB was obtained from SC (Frontiers in Neuroscience 2011, 5 (103), p. 1-4) experiment. SC provides a sequence of challenges to mice and captures more than 2,000 features during a 1 hour testing session. These features are analyzed with computer algorithms and data mining approaches to automate the study of mice behavior and compared to a database of behavioral signatures obtained using a set of diverse reference compounds, including antidepressants, cognitive enhancers, antipsychotics, and anxiolytics. In this assay, C57BL/6 mice were injected with compound II-ING-6 at 50 mg/kg (ip)."}, "[1]": {"tested_on": "TA98-S9, TA100-S9, TA1535-59, and TA1537-59", "experiment": "Ames test (genetic toxicity)", "parameters": "species or system bacterium", "details": "concentrations of 0.6-100 μM", "method": "Compound II-ING-6 was tested in genetic toxicity assays to assess the mutagenic potential of the compound. The Ames test was done with several strains of bacterium, such as: TA98-S9, TA100-S9, TA1535-59, and TA1537-59."}}, "data": [{"smiles": "O=C(NO)c1ccc(CN2CCc3ccc(Cl)cc32)cc1", "note": "[II-ING-6, 4-((6-Chloroindolin-1-yl)methyl)-N-hydroxybenzamide]", "values": [{"measurement": "SC signature (behavioral class)", "setting": "C57BL/6 mice", "result": "anxiolytic effect"}, {"measurement": "Ames test result (mutagenic potential)", "setting": "[1]", "result": "Negative"}]}]}
